Laboratory results from PubChem BioAssay AID248 (DTP/NCI, 2004).
Toxic doses and inconclusive results are not listed. Rule as the data show it: active = T/C of 150% or more; inactive = T/C below 125%.

Tested on: L1210 leukemia ip in BDF1 mice, survival T/C
Assay: NCI In Vivo Anticancer Drug Screen. Data for tumor model L1210 Leukemia (intraperitoneal) in B6D2F1 (BDF1) mice
Details: endpoint: mean survival time, higher = longer survival
Method in brief: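 Mice bearing the transplanted tumor received compound or vehicle. Survival of the treated group was divided by that of the vehicle-treated control group to give the ratio.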

[1] = dose: 100.0 mg/kg/injection, schedule: Q01DX009 (ip), vehicle: Klucel (hydroxypropylcellulose) (HPC)
[2] = dose: 200.0 mg/kg/injection, schedule: Q01DX009 (ip), vehicle: Klucel (hydroxypropylcellulose) (HPC)
[3] = dose: 400.0 mg/kg/injection, schedule: Q01DX009 (ip), vehicle: Klucel (hydroxypropylcellulose) (HPC)
[4] = dose: 100.0 mg/kg/injection, schedule: Q04DX003 (ip), vehicle: saline with Tween-80
[5] = dose: 200.0 mg/kg/injection, schedule: Q04DX003 (ip), vehicle: saline with Tween-80
[6] = dose: 400.0 mg/kg/injection, schedule: Q04DX003 (ip), vehicle: saline with Tween-80
[7] = dose: 100.0 mg/kg/injection, schedule: Q04DX003 (ip), vehicle: Klucel (hydroxypropylcellulose) (HPC)
[8] = dose: 200.0 mg/kg/injection, schedule: Q04DX003 (ip), vehicle: Klucel (hydroxypropylcellulose) (HPC)
[9] = dose: 400.0 mg/kg/injection, schedule: Q04DX003 (ip), vehicle: Klucel (hydroxypropylcellulose) (HPC)
[10] = dose: 75.0 mg/kg/injection, schedule: Q01DX001 (ip), vehicle: saline
[11] = dose: 100.0 mg/kg/injection, schedule: Q01DX001 (ip), vehicle: saline
[12] = dose: 150.0 mg/kg/injection, schedule: Q01DX001 (ip), vehicle: saline
[13] = dose: 200.0 mg/kg/injection, schedule: Q01DX001 (ip), vehicle: saline
[14] = dose: 300.0 mg/kg/injection, schedule: Q01DX001 (ip), vehicle: saline
[15] = dose: 400.0 mg/kg/injection, schedule: Q01DX001 (ip), vehicle: saline

Measured: T/C

CCOC(=O)c1cc(=O)c2cc(S(=O)(=O)F)ccc2[nH]1
inactive: [1] 95 % of control | [2] 97 % of control | [3] 97 % of control

Cc1ccc2c(c1)SCc1c-2[nH]c2ccccc12
inactive: [4] 103 % of control | [5] 100 % of control | [6] 108 % of control

CC(=O)[O][Hg][c]1cc(C)cc([N+](=O)[O-])c1O
inactive: dose: 6.25 mg/kg/injection, schedule: Q01DX009 (ip), vehicle: Klucel (hydroxypropylcellulose) (HPC) 94 % of control | dose: 12.5 mg/kg/injection, schedule: Q01DX009 (ip), vehicle: Klucel (hydroxypropylcellulose) (HPC) 100 % of control | dose: 12.5 mg/kg/injection, schedule: Q04DX003 (ip), vehicle: Klucel (hydroxypropylcellulose) (HPC) 100 % of control | dose: 25.0 mg/kg/injection, schedule: Q01DX009 (ip), vehicle: Klucel (hydroxypropylcellulose) (HPC) 92 % of control | dose: 25.0 mg/kg/injection, schedule: Q04DX003 (ip), vehicle: Klucel (hydroxypropylcellulose) (HPC) 95 % of control

O=C(Cl)c1cc2ccccc2o1
inactive: [4] 89 % of control | [5] 92 % of control | [6] 95 % of control

Clc1ccc2c(c1)C(Nc1cc3c4ccccc4ccc3c3ccccc13)c1cc(Cl)cc(Cl)c1-2 (configuration not stated)
inactive: [1] 88 % of control | [7] 90 % of control | [2] 88 % of control | [8] 95 % of control | [3] 86 % of control | [9] 93 % of control

CC(=O)OC1=C(CC=C(C)C)C(=O)c2ccccc2C1=O
inactive: dose: 50.0 mg/kg/injection, schedule: Q01DX001 (ip), vehicle: water 97 % of control | dose: 100.0 mg/kg/injection, schedule: Q01DX001 (ip), vehicle: water 95 % of control | dose: 200.0 mg/kg/injection, schedule: Q01DX001 (ip), vehicle: water 100 % of control | dose: 400.0 mg/kg/injection, schedule: Q01DX001 (ip), vehicle: water 104 % of control

CC(=O)Nc1nc(Cl)c2ncn(C3OC(COC(=O)c4ccccc4)C(OC(=O)c4ccccc4)C3OC(=O)c3ccccc3)c2n1 (configuration not stated)
inactive: [10] 95 % of control | [11] 103 % of control | [12] 98 % of control | [13] 101 % of control | [14] 95 % of control | [15] 95 % of control

C=CS(=O)(=O)CCCCCCC
inactive: [10] 96 % of control | [12] 94 % of control | [14] 97 % of control

O=C(CC(=O)C(F)(F)F)c1ccccc1.O=C(CC(=O)C(F)(F)F)c1ccccc1.[Cu]
inactive: dose: 6.25 mg/kg/injection, schedule: Q01DX009 (ip), vehicle: saline with Tween-80 95 % of control | dose: 6.25 mg/kg/injection, schedule: Q04DX003 (ip), vehicle: saline with Tween-80 91 % of control | dose: 12.5 mg/kg/injection, schedule: Q01DX009 (ip), vehicle: saline with Tween-80 95 % of control | dose: 12.5 mg/kg/injection, schedule: Q04DX003 (ip), vehicle: saline with Tween-80 92 % of control | dose: 25.0 mg/kg/injection, schedule: Q01DX009 (ip), vehicle: saline with Tween-80 92 % of control | dose: 25.0 mg/kg/injection, schedule: Q04DX003 (ip), vehicle: saline with Tween-80 91 % of control

O=C(N/N=C/c1ccc([N+](=O)[O-])cc1)c1cccc2ccccc12
inactive: [11] 97 % of control | [13] 89 % of control | [15] 89 % of control

CCOC(=O)C1C2C=CC=CC(=O)C21 (configuration not stated)
inactive: dose: 100.0 mg/kg/injection, schedule: Q01DX009 (ip), vehicle: other 102 % of control | dose: 100.0 mg/kg/injection, schedule: Q04DX003 (ip), vehicle: other 95 % of control | dose: 200.0 mg/kg/injection, schedule: Q01DX009 (ip), vehicle: other 95 % of control | dose: 200.0 mg/kg/injection, schedule: Q04DX003 (ip), vehicle: other 95 % of control | dose: 400.0 mg/kg/injection, schedule: Q04DX003 (ip), vehicle: other 105 % of control

CCCCOc1ccc(OC(=O)Nc2cc(Cl)ccc2OC)cc1
inactive: [1] 105 % of control | [7] 96 % of control | [2] 97 % of control | [8] 97 % of control | [3] 113 % of control | [9] 97 % of control

CC1CN=C(c2ccc(NC(=O)NCCCCCCCCCCNC(=O)Nc3ccc(C4=NCC(C)N4)cc3)cc2)N1 (configuration not stated)
inactive: dose: 5.0 mg/kg/injection, schedule: Q01DX015 (ip), vehicle: water 96 % of control | dose: 10.0 mg/kg/injection, schedule: Q01DX015 (ip), vehicle: water 102 % of control | dose: 20.0 mg/kg/injection, schedule: Q01DX015 (ip), vehicle: water 103 % of control

CSc1ncnc2c1ncn2C1CCCC1
inactive: dose: 50.0 mg/kg/injection, schedule: Q01DX001 (ip), vehicle: carboxymethylcellulose (CMC) 116 % of control | dose: 100.0 mg/kg/injection, schedule: Q01DX001 (ip), vehicle: carboxymethylcellulose (CMC) 104 % of control | dose: 200.0 mg/kg/injection, schedule: Q01DX001 (ip), vehicle: carboxymethylcellulose (CMC) 107 % of control

CC(=O)OC1C2CCC(C2)C1C (configuration not stated)
inactive: dose: 100.0 mg/kg/injection, schedule: Q01DX009 (ip), vehicle: saline with Tween-80 98 % of control | dose: 200.0 mg/kg/injection, schedule: Q01DX009 (ip), vehicle: saline with Tween-80 104 % of control | dose: 400.0 mg/kg/injection, schedule: Q01DX009 (ip), vehicle: saline with Tween-80 96 % of control

CC(O)CC[P+](c1ccccc1)(c1ccccc1)c1ccccc1 (configuration not stated)
inactive: dose: 75.0 mg/kg/injection, schedule: Q01DX001 (ip), vehicle: other 101 % of control | dose: 150.0 mg/kg/injection, schedule: Q01DX001 (ip), vehicle: other 93 % of control

Cc1ccc2c(c1C)C(=O)C(=O)N2
inactive: dose: 50.0 mg/kg/injection, schedule: Q01DX001 (ip), vehicle: saline 110 % of control | [11] 104 % of control | [13] 110 % of control | [15] 104 % of control

Cc1ccc(S(=O)(=O)/N=S(\CCCl)CCc2ccccc2)cc1 (configuration not stated)
inactive: [7] 97 % of control | [8] 97 % of control | [9] 90 % of control

OCSCc1c(Cl)c(Cl)c(Cl)c(Cl)c1Cl
inactive: dose: 100.0 mg/kg/injection, schedule: Q04DX002 (ip), vehicle: Klucel (hydroxypropylcellulose) (HPC) 103 % of control | dose: 200.0 mg/kg/injection, schedule: Q04DX002 (ip), vehicle: Klucel (hydroxypropylcellulose) (HPC) 103 % of control | dose: 400.0 mg/kg/injection, schedule: Q04DX002 (ip), vehicle: Klucel (hydroxypropylcellulose) (HPC) 98 % of control

CCOC(=S)SCC#CCSC(=S)OCC
inactive: dose: 100.0 mg/kg/injection, schedule: Q04DX002 (sc), vehicle: olive oil, sesame oil, peanut oil 104 % of control | dose: 200.0 mg/kg/injection, schedule: Q04DX002 (sc), vehicle: olive oil, sesame oil, peanut oil 114 % of control | dose: 400.0 mg/kg/injection, schedule: Q04DX002 (sc), vehicle: olive oil, sesame oil, peanut oil 96 % of control
